# Test results from patent US10940156B2, “Neuroactive steroids, compositions, and uses thereof” (Sage Therapeutics, Inc., priority 2016, dated 2021).
# Legend:
# [1] = 14-day rat toxicology study; assay type: in vivo; conditions: for NOAEL at 14 days: in vivo, 14-day daily administration, solution in Labrasol
# Method: (§1) The compound was assessed in 14-day rat and dog toxicology studies with daily administration of Compound 9 as a solution in HPBCD in dogs and Labrasol® in rats.
# (§2) The NOAEL in rats was 3 mg/kg (females) and 22.5 mg/kg (males), and was 2.5 mg/kg in dogs. […] A single observation of mortality occurred in one female rat at the high dose in a toxicokinetic study which was suspected to have been related to exaggerated pharmacology.
# rats = experiment: 14-day rat toxicology study; assay type: in vivo
# Method: as §1, §2
# [2] = 14-day dog toxicology study; assay type: in vivo; conditions: dog, in vivo; dogs; 14-day daily administration, solution in HPBCD
# Method: as §1, §2
# dogs = experiment: 14-day dog toxicology study; assay type: in vivo
# Method: as §1, §2
# [3] = tested on: seizures arising from chemoconvulsants, proconvulsant stimuli, and genetic predisposition; experiment: preclinical anticonvulsant models; assay type: in vivo, rodents; conditions: oral
# Method: FIGS. 3A and 3B depict exemplary preclinical anticonvulsant efficacy in rodents.
# as §1
# [4] = toxicology and safety pharmacology studies across species; assay type: in vivo
# Method: as §1
# Expected risks are those identified during the toxicology and safety pharmacology studies for Compound 9 and clinical study Example 2. […] This will be monitored in the clinical study using two scales, one designed to monitor “sleepiness” (Stanford Sleepiness Scale) and one to monitor deeper sedation (Modified Observer's Assessment of Alertness/Sedation).
# healthy volunteers [5] = experiment: Phase I single ascending dose (SAD) study: MOAA/S sedation and adverse events; assay type: in vivo, human
# Source text: Example 2. A Phase I, Double-Blind, Placebo-Controlled, Single Ascending Dose Study to Determine the Maximum Tolerated Dose (MTD), Pharmacokinetics and Pharmacodynamics of Compound 9 Oral Solution in Healthy Volunteers and the Safety, Tolerability, and Pharmacokinetics of Compound 9 in Subjects with Essential Tremor
# This four-part study will assess the effects of a single dose of Compound 9. The initial part of the study is a double-blind, placebo-controlled single ascending dose (SAD) design in healthy, adult volunteers with the objective of identifying the maximum tolerated dose (MTD) and pharmacokinetic (PK) profiles of Compound 9 Oral Solution. Escalation to the next dose will be undertaken only after safety and PK data have been reviewed by the Safety Review Committee (SRC) and agreement reached that it is safe to increase the dose. The SRC will not receive any unblinded PK data unless it is agreed upon by the SRC to unblind a subject and/or cohort based on the completed safety review.
# In each of the SAD cohorts, subjects will be randomly assigned to receive either Compound 9 (six subjects) or placebo (two subjects) in a blinded manner. Cohort 1 will receive Dose 1, Cohort 2 will receive Dose 2, and so on. With the exception of the Food cohort, study drug will be administered in a fasting state (no food and only water for the previous 12 hours) and a standard Phase 1 unit diet will be administered beginning approximately four to five hours after dosing. […]
# The MOAA/S allows exploration of deeper sedation states than the SSS. […] If a MOAA/S score of 3 or less (≤3) is observed, confirm the score by waiting approximately 10 minutes and readministering the MOAA/S assessment. […]
# healthy volunteers [6] = experiment: Phase I multiple ascending dose (MAD) study: MOAA/S sedation; assay type: in vivo, human
# Source text: Example 3. Phase I, Double-Blind, Placebo-Controlled, Multiple Ascending Dose Study to Determine Safety, Tolerability, Pharmacokinetics and Pharmacodynamics of Compound 9 Oral Solution in Healthy Volunteers
# This study comprises a double blind, placebo-controlled multiple ascending dose (MAD) study followed by an open-label drug-drug interaction study (DDI) without placebo in healthy, adult volunteers. Four cohorts of 12 subjects each will be recruited for a total of 48 subjects. Subjects in Cohorts 1, 2, and 3 will participate in the multiple-ascending-dose (MAD) part of the study, and subjects in Cohort 4 will participate in the drug-drug-interaction (DDI) part of the study.
# The objective of the MAD part of the study is to determine the safety, tolerability, pharmacokinetics (PK), and pharmacodynamic (PD) profile of seven days of dosing with Compound 9 Oral Solution (henceforth referred to as Compound 9).
# The MOAA/S allows exploration of deeper sedation states than the SSS. All time points are relative to the time of dosing. If the planned time point is between the hours of 22:00 h and 08:00 h each day or if the subject has been discharged before the +72 hour time point, the assessment need not be conducted at that time point. If a subject is difficult to awaken, an additional MOAA/S assessment may be performed at the discretion of the PI. Any MOAA score of 3 or less must be repeated. […]
# [7] = male and female rats, non-adverse, reversible, without microscopic correlates
compound,measurement,setting,value
C[C@@]1(O)CC[C@H]2[C@H](CC[C@@H]3[C@@H]2CC[C@]2(C)[C@@H](C(=O)Cn4cc(C#N)cn4)CC[C@@H]32)C1 [Compound 9],AUC at 14 day,"[1]; plasma, 22.5 mg/kg, male rat 14-day toxicology, read-out: AUC at lowest NOAEL exposure in toxicology studies",5050 ng·h/mL
same,NOAEL at 14 days,"[1]; rat, female rats",3 mg/kg
same,NOAEL at 14 days,"[1]; rat, male rats",22.5 mg/kg
same,Cmax,"[1]; rat, plasma, 3 mg/kg, female rats, Day 14, read-out: estimated human Cmax based on the lowest NOAEL Day 14 Cmax in female rats",400 ng/mL
same,mortality,"rats; female rat, high dose, toxicokinetic study, suspected related to exaggerated pharmacology",one
same,increases in AST/ALT,rats; high dose male and female rats,< 2 fold
same,microscopic liver finding,rats; high dose male and female rats,increased incidence of minimal hepatocellular vacuolation
same,APTT,rats; [7],slight prolongation of APTT
same,urine pH,rats; [7],slight increase in urine pH
same,adverse effects in main toxicology study,rats; rats,no adverse effects
same,NOAEL at 14 days,[2],2.5 mg/kg
same,adverse effects in main toxicology study,dogs,no adverse effects
same,core body temperature,dogs,transient decreases in core body temperature
same,heart rate,dogs,transient increases in heart rate
same,renal microscopic finding,dogs; well-documented vehicle effect,minimal renal tubular vacuolation
same,anticonvulsant activity,[3],"orally active in preclinical anticonvulsant models, and suppressed seizures"
same,most common drug-related effect,"[4]; across species, studies and doses",dose-related sedation
same,manifestations of exaggerated pharmacology,[4]; nonclinical studies,sedation and ataxia
same,subjects with MOAA/S ≤2,"healthy volunteers [5]; 55 mg single dose, stopping criteria not met",2 subjects
same,subjects with MOAA/S ≤2,"healthy volunteers [5]; 66 mg single dose, stopping criteria met",2 subjects
same,adverse events possibly or probably related to the study drug,"healthy volunteers [5]; five SAD cohorts dosed, oral solution, study ongoing","mild drowsiness, mild confusion, somnolence, headache, orthostatic heart rate increase, aloofness, anxiety, sore throat and mild abdominal discomfort"
same,subjects with MOAA/S scores of 1 or 2 (deep sedation),"healthy volunteers [6]; 35 mg group, all at 1 hour post-dose",two
same,mean MOAA/S,healthy volunteers [6]; by 4 hours post-dose,approached baseline values
